Laboratory results as given in patent publication US11083709B2, “Compounds, compositions, and methods of increasing CFTR activity” (Proteostasis Therapeutics, Inc., priority 2015, dated 2021).
Where a name gives a salt, the structure may show the parent alone.

Tests used:
[1] = test system: CFTR in G551D/F508del HBEs; assay: Ussing measurements, G551D/F508del HBEs; type: cell-based, human; details: Ussing; Compound A 10 uM, ivacaftor 1 uM
Method: (§1) As discussed above, Ussing measurements was used to measure CFTR activity. In this method, primary lung epithelial cells (hBEs) with a Cystic Fibrosis-causing class III mutation were differentiated for a minimum of 4 weeks in an air-liquid interface on SnapWell™ filter plates prior to the Ussing measurements. Cells were apically mucus-washed for 30 minutes prior to treatment with compounds. The basolateral media was removed and replaced with media containing the compound of interest diluted to its final concentration from DMSO stocks. Treated cells were incubated at 37° C. and 5% CO2 for 24 hours. At the end of the treatment period, the cells on filters were transferred to the Ussing chamber and equilibrated for 30 minutes. The short-circuit current was measured in voltage clamp-mode (Vhold=0 mV), and the entire assay was conducted at a temperature of 36° C.-36.5° C. Once the voltages stabilized, the chambers were clamped, and data was recorded by pulse readings every 5 seconds. Following baseline current stabilization, the following additions were applied and the changes in current and resistance of the cells was monitored: • 1. Benzamil to the apical chamber to inhibit ENaC sodium channel. • 2. Forskolin to both chambers to activate ΔF508-CFTR by phosphorylation. • 3. Ivacaftor or Genistein to the apical chamber to potentiate ΔF508-CFTR channel opening. • 4. CFTRinh-172 to the apical chamber to inhibit ΔF508-CFTR Cl-conductance.
(§2) The forskolin-sensitive current and inhibitable current (that potentiated current that is blocked by CFTRinh-172) were measured as the specific activity of the ΔF508-CFTR channel, and increase in response to compound in this activity over that observed in vehicle-treated samples were identified as the correction of ΔF508-CFTR function imparted by the compound tested.
(§3) The results are shown below in Tables 5 and 6. Compound A is 10 uM and VX-809 is 3 uM and ivacaftor is 1 uM.

[2] = test system: CFTR in R117H/F508del HBEs; assay: Ussing measurements, R117H/F508del HBEs; type: cell-based, human; details: Ussing; Compound A 10 uM, ivacaftor 1 uM
Method: as §1, §2, §3

[3] = target: T1, ΔF508-CFTR (Homo sapiens, UniProt P13569, DEL508-508); assay: hBE equivalent current (Ieq) assay, primary lung epithelial cells homozygous for ΔF508; type: cell-based; details: 24 h treatment; for leq: activity relative to VX-809 (AUC of equivalent chloride current): compound alone run at 10 uM, relative to VX-809 at 1 uM; for leq: activity of compound with VX-809, % of VX-809 (AUC of equivalent chloride current): compound at 10 uM and VX-809 at 1 uM, relative to VX-809 (1 uM)
T1 construct: primary lung epithelial cells (hBEs) homozygous for the Cystic Fibrosis-causing ΔF508 mutation; endogenous in cells; host or cells: primary lung epithelial cells (hBEs) homozygous for ΔF508
Method: Primary lung epithelial cells homozygous for the Cystic Fibrosis-causing ΔF508 mutation were differentiated for a minimum of 4 weeks in an air-liquid interface on Costar 24 well HTS filter plates prior to the equivalent current (Ieq) measurements. Cells were apically mucus-washed for 30 minutes 24h prior to treatment with compounds. The basolateral media was removed and replaced with media containing the compound of interest diluted to its final concentration from DMSO stocks. Treated cells were incubated at 37° C. and 5% CO2 for 24 hours. At the end of the treatment period, the media was changed to the Ieq experimental solution for 30 minutes before the experiment and plates are maintained in a CO2-free incubator during this period. The plates containing the cells were then placed in pre-warmed heating blocks at 36° C.±0.5 for 15 minutes before measurements are taken. The transepithelial voltage (VT) and conductance (GT) were measured using a custom 24 channel current clamp (TECC-24) with 24 well electrode manifold. The Ieq assay measurements were made following additions with standardized time periods: • 1. The baseline VT and GT values were measured for approximately 20 minutes. • 2. Benzamil was added to block ENaC for 15 minutes. • 3. Forskolin plus VX-770 (ivacaftor) were added to maximally activate ΔF508-CFTR for 27 minutes. • 4. Bumetanide was added to inhibit the NaK2Cl cotransporter and shut-off secretion of chloride.
The activity data captured was the area under the curve (AUC) for the traces of the equivalent chloride current. The AUC was collected from the time of the forskolin/VX-770 addition until the inhibition by bumetanide addition. Correction in response to compound treatment was scored as the increase in the AUC for compound-treated samples over that of vehicle-treated samples.
The results are shown below in Table 2. ++ indicates activity ≥25% run at 10 uM of VX-809 at 1 uM, + indicates activity 10 to <25% run at 10 uM of VX-809 at 1 uM, ** indicates activity ≥200% of VX-809 (1 uM) with compound at 10 uM and VX-809 at 1 uM; * indicates activity 100-200% of VX-809 (1 uM) with compound at 10 uM and VX-809 at 1 uM. ^## indicates activity ≥200% of VX-809 (3 uM) with compound at 10 uM and VX-809 at 3 uM; ^# indicates activity 100-200% of VX-809 (3 uM) with compound at 10 uM and VX-809 at 3 uM.

[4] = target: T1, ΔF508-CFTR; assay: Ussing measurements, hBEs homozygous for ΔF508; type: cell-based; details: compound at 10 uM and VX-809 at 3 uM, relative to VX-809 (3 uM); 24 h treatment
Method: As discussed above, Ussing measurements can be used to measure CFTR activity. In this example, primary lung epithelial cells (hBEs) homozygous for the Cystic Fibrosis-causing ΔF508 mutation were differentiated for a minimum of 4 weeks in an air-liquid interface on SnapWell filter plates prior to the Ussing measurements. Cells were apically mucus-washed for 30 minutes prior to treatment with compounds. The basolateral media was removed and replaced with media containing the compound of interest diluted to its final concentration from DMSO stocks. Treated cells were incubated at 37° C. and 5% CO2 for 24 hours. […] The short-circuit current was measured in voltage clamp-mode (Vhold=0 mV), and the entire assay was conducted at a temperature of 36° C.-36.5° C. Once the voltages stabilized, the chambers were clamped, and data was recorded by pulse readings every 5 seconds. Following baseline current stabilization, the following additions were applied and the changes in current and resistance of the cells was monitored: • 1. […]
The inhibitable current (that current that is blocked by CFTRinh-172) is measured as the specific activity of the ΔF508-CFTR channel, and increases in response to compound in this activity over that observed in vehicle-treated samples are identified as the correction of ΔF508-CFTR function imparted by the compound tested. […]

T1 sequence (P13569 with tags, fused parts or gaps DEL508-508): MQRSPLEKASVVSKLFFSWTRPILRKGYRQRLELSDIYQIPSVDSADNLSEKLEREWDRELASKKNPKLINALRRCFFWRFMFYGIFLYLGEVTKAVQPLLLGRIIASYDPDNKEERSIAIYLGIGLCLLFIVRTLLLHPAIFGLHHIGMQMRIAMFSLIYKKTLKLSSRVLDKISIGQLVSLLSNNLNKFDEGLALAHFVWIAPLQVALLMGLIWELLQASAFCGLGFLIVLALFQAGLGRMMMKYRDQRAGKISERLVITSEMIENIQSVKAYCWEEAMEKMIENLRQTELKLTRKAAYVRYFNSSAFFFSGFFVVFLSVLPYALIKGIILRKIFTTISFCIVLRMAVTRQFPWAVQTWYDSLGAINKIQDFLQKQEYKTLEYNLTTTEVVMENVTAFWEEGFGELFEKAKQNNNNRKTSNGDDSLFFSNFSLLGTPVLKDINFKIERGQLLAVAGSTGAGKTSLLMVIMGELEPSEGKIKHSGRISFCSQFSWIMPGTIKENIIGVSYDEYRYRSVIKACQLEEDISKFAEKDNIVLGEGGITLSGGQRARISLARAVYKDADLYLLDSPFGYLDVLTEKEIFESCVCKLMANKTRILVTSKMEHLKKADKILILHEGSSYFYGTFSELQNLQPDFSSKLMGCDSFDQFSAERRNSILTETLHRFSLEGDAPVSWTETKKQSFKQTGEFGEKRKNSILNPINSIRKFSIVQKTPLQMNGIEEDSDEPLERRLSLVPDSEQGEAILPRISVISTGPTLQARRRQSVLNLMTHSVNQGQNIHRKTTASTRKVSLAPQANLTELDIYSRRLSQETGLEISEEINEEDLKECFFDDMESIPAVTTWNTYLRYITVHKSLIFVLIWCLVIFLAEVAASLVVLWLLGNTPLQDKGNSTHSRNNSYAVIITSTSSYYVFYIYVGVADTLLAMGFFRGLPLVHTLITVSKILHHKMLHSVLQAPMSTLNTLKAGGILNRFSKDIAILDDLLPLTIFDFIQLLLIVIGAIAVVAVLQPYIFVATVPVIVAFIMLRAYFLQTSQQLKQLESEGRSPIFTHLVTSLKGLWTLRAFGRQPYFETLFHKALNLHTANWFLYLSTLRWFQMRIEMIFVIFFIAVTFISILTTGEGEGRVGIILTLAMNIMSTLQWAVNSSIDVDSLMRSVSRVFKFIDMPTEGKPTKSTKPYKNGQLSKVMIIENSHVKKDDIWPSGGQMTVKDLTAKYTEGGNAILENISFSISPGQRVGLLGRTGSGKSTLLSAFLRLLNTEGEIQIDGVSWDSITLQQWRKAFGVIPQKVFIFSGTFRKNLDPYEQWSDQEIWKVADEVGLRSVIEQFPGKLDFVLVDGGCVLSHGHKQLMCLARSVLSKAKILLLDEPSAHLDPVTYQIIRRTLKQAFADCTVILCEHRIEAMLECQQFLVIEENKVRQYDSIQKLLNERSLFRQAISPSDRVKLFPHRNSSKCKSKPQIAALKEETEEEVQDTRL

SMILES	leq: activity of compound with VX-809, % of VX-809 (AUC of equivalent chloride current) [3]	further results
CC(C)(C)c1cc(C(C)(C)C)c(NC(=O)c2c[nH]c3ccccc3c2=O)cc1O [ivacaftor, reference compound]		Activity in G551D/F508del HBEs (relative to ivacaftor activity) [1]: 100%; Activity in R117H/F508del HBEs (relative to ivacaftor activity) [2]: 100%
O=C(NCCN1CCOCC1)c1cc(-c2ccccc2)no1 [Example 3, N-(2-morpholinoethyl)-3-phenylisoxazole-5-carboxamide]		leq: activity relative to VX-809 (AUC of equivalent chloride current) [3]: ++ (++ indicates activity ≥25% run at 10 uM of VX-809 at 1 uM)
COCCNC(=O)c1cc(-c2ccccc2)no1 [Example 1, N-(2-methoxyethyl)-3-phenylisoxazole-5-carboxamide]		leq: activity relative to VX-809 (AUC of equivalent chloride current) [3]: ++ (++ indicates activity ≥25% run at 10 uM of VX-809 at 1 uM)
O=C(N[C@H]1C[C@H](c2nnc(C3CS(=O)(=O)C3)o2)C1)c1cc(-c2ccccc2)no1 [Example 23, N-(trans-3-(5-(1,1-dioxidothietan-3-yl)-1,3,4-oxadiazol-2-yl)cyclobutyl)-3-phenylisoxazole-5-carboxamide]	* (* indicates activity 100-200% of VX-809 (1 uM) with compound at 10 uM and VX-809 at 1 uM)	
CC(OC1CCC1)c1nnc([C@H]2C[C@H](NC(=O)c3cc(-c4ccccc4)no3)C2)o1 (relative stereo) [Example 17, N-(trans-3-(5-(1-cyclobutoxyethyl)-1,3,4-oxadiazol-2-yl)cyclobutyl)-3-phenylisoxazole-5-carboxamide]	* (* indicates activity 100-200% of VX-809 (1 uM) with compound at 10 uM and VX-809 at 1 uM)	
O=C(N[C@H]1C[C@H](n2nncc2CO)C1)c1cc(-c2ccccc2)no1 [Example 5, N-(trans-3-(5-(hydroxymethyl)-1H-1,2,3-triazol-1-yl)cyclobutyl)-3-phenylisoxazole-5-carboxamide]		Ussing: activity of compound with VX-809, % of VX-809 [4]: ## (## indicates activity ≥200% of VX-809 (3 uM) with compound at 10 uM and VX-809 at 3 uM)
C[C@@H](O)c1nnc([C@H]2C[C@H](NC(=O)c3onc(-c4ccccc4)c3F)C2)o1 [Example 50, 4-Fluoro-3-phenyl-N-[(1r,3r)-3-[5-[(1R)-1-hydroxyethyl]-1,3,4-oxadiazol-2-yl]cyclobutyl]-1,2-oxazole-5-carboxamide]	* (* indicates activity 100-200% of VX-809 (1 uM) with compound at 10 uM and VX-809 at 1 uM)	
CO[C@H](C)c1nnc([C@H]2C[C@H](NC(=O)c3cc(-c4ccccc4)no3)C2)o1 [Example 14, N-(trans-3-(5-((R)-1-methoxyethyl)-1,3,4-oxadiazol-2-yl)cyclobutyl)-3-phenylisoxazole-5-carboxamide]	* (* indicates activity 100-200% of VX-809 (1 uM) with compound at 10 uM and VX-809 at 1 uM)	
CN1CCC(N2CC(c3nnc(C4CC(NC(=O)c5cc(-c6ccccc6)no5)C4)o3)C2)CC1 (stereo not drawn) [Example 24, N-cis-(3-(5-(1-(1-methylpiperidin-4-yl)azetidin-3-yl)-1,3,4-oxadiazol-2-yl)cyclobutyl)-3-phenylisoxazole-5-carboxamide]	* (* indicates activity 100-200% of VX-809 (1 uM) with compound at 10 uM and VX-809 at 1 uM)	
O=C(N[C@H]1C[C@@H](n2nncc2CO)C1)c1cc(-c2ccccc2)no1 [Example 28, N-(cis-3-(5-(hydroxymethyl)-1H-1,2,3-triazol-1-yl)cyclobutyl)-3-phenylisoxazole-5-carboxamide]	** (** indicates activity ≥200% of VX-809 (1 uM) with compound at 10 uM and VX-809 at 1 uM)	
CN1CC(c2nnc([C@H]3C[C@H](NC(=O)c4cc(-c5ccccc5)no4)C3)o2)C1 [Example 21, N-(trans-3-(5-(1-methylazetidin-3-yl)-1,3,4-oxadiazol-2-yl)cyclobutyl)-3-phenylisoxazole-5-carboxamide trifluoroacetate]	* (* indicates activity 100-200% of VX-809 (1 uM) with compound at 10 uM and VX-809 at 1 uM)	
O=C(N[C@H]1C[C@H](c2nnc(C3CN(CC4CCC4)C3)o2)C1)c1cc(-c2ccccc2)no1 [Example 27, N-(trans-3-(5-(1-(cyclobutylmethyl)azetidin-3-yl)-1,3,4-oxadiazol-2-yl)cyclobutyl)-3-phenylisoxazole-5-carboxamide]	* (* indicates activity 100-200% of VX-809 (1 uM) with compound at 10 uM and VX-809 at 1 uM)	
